Values of other authors in patent US20120016021A1, “METHODS OF TREATING FRAGILE X SYNDROME, DOWN'S SYNDROME, AUTISM AND RELATED DISORDERS” (XENOPORT, INC., priority 2010, published 2012).

Assays:
[1] = administered orally
Fmr1 KO mice = conditions: low doses (1 mg/kg), audiogenically induced seizures
[2] = animal models

elimination half-life [1]	absorption following administration into the colon [2]	SMILES	locomotor activity (Fmr1^/− animals; baclofen at 3 mg/kg, Fmr1^/− animals)	dose needed for comparable locomotor suppression in animals reared by Fmr1^+/+ mothers versus Fmr1^/− animals (Fmr1^/− animals; relative to 3 mg/kg)	seizure incidence (Fmr1 KO mice)	social isolation and communication (autistic children)	irritability subscale of the Aberrant Behavior Checklist and Clinical Global Impressions-Improvement (autistic children; placebo-controlled)
3 to 4 h	poorly absorbed	NCC(CC(=O)O)c1ccc(Cl)cc1 (racemic) [baclofen, 4-amino-3-(4-chlorophenyl)butanoic acid]	inhibits locomotor activity	2 fold	significantly inhibits seizure incidence		
		Cc1nc2n(c(=O)c1CCN1CCC(c3noc4cc(F)ccc34)CC1)CCCC2 [risperidone]				not improved	significant improvement
